Source: patent US8791268B2, “Vanilloid receptor ligands, pharmaceutical compositions containing them, process for making them, and use thereof for treating pain and other conditions” (Gruenenthal GmbH, priority 2007, dated 2014)

Assays:
Format in all cases: cell-based
VR1/TRPV1 receptor = VR1/TRPV1 receptor (Homo sapiens (Human), UniProt Q8NER1); assay: Inhibition of human VR1/TRPV1 following pH-stimulus
[1] = biological target: vanilloid receptor 1 (VR1/TRPV1) (Rattus norvegicus (Rat), UniProt O35433); assay: FLIPR Ca2+ influx assay on rat dorsal root ganglia cells, capsaicin stimulus (Pharmacological Method I)
Sequence of vanilloid receptor 1 (VR1/TRPV1) (O35433 whole entry): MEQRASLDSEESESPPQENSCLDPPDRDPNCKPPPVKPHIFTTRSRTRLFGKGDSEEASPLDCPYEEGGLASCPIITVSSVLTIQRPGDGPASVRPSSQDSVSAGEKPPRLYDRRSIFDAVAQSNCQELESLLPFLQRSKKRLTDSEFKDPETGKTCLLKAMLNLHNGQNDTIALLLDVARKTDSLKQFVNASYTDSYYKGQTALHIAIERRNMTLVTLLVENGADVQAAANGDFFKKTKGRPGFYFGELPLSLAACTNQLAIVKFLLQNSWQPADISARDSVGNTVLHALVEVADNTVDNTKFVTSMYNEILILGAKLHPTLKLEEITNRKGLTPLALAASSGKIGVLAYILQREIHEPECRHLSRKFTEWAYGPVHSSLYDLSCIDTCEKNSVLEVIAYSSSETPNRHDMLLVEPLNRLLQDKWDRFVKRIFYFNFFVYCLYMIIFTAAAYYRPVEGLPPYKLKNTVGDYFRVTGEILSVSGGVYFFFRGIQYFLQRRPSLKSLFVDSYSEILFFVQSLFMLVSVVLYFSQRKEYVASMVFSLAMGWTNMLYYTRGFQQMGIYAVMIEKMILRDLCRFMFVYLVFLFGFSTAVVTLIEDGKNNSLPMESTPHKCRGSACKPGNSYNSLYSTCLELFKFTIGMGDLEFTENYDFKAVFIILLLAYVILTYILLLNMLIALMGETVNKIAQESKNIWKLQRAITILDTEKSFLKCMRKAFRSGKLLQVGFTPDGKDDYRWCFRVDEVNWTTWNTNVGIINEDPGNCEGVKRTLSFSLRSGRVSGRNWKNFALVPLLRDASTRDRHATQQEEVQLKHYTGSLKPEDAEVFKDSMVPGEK
Excerpt: I. Functional Investigation on the Vanilloid Receptor 1 (VR1/TRPV1 Receptor)
The agonistic or antagonistic action of the substances to be investigated on the vanilloid receptor 1 (VR1/TRPV1) of the species rat can be determined using the following assay. According to this assay, the Ca^2+ influx through the receptor channel is quantified with the aid of a Ca^2+-sensitive dye (Type Fluo-4, Molecular Probes Europe BV, Leiden Netherlands) in a fluorescent imaging plate reader (FLIPR, Molecular Devices, Sunnyvale, USA).
Complete medium: 50 mL of HAMS F12 Nutrient Mixture (Gibco Invitrogen GmbH, Karlsruhe, Germany) with
10% by volume of FCS (fetal calf serum, Gibco Invitrogen GmbH, Karlsruhe, Germany, heat-inactivated);
2 mM of L-glutamine (Sigma, Munich, Germany);
1% by weight of AA solution (antibiotics/antimycotics solution, PAA, Pasching, Austria)
and 25 ng/mL of Medium NGF (2.5 S, Gibco Invitrogen GmbH, Karlsruhe, Germany) Cell culture plate: Poly-D-lysine-coated, black 96-well plates with a clear bottom (96-well black/clear plate, BD Biosciences, Heidelberg, Germany) are additionally coated with laminin (Gibco Invitrogen GmbH, Karlsruhe, Germany) by diluting laminin to a concentration of 100 μg/mL with PBS (Ca—Mg-free PBS, Gibco Invitrogen GmbH, Karlsruhe, Germany). Aliquots having a concentration of 100 μg/mL of laminin are taken and stored at −20° C. The aliquots are diluted with PBS in the ratio 1:10 to 10 μg/mL of laminin and in each case 50 μL of the solution is pipeted into a well of the cell culture plate. The cell culture plates are incubated at 37° C. for at least two hours, the supernatant solution is aspirated and the wells are in each case washed twice with PBS. The coated cell culture plates are stored with supernatant PBS and this is removed only directly before the addition of the cells.
Preparation of the Cells:
The vertebral column is removed from decapitated rats and this is laid directly in a cold, i.e. ice bath-surrounded, HBSS buffer (Hank's buffered saline solution, Gibco Invitrogen GmbH, Karlsruhe, Germany) and 1% by volume of an AA solution (antibiotics/antimycotics solution, PAA, Pasching, Austria) is added. The vertebral column is cut in two, longitudinally, and the vertebral canal is removed together with fascias. Subsequently, the dorsal root ganglia (DRGs) are removed and in turn stored in cold HBSS buffer to which 1% by volume of an AA solution has been added. The DRGs completely freed from blood residues and spinal nerves are in each case transferred to 500 μL of cold collagenase Type 2 (PAA, Pasching, Austria) and incubated at 37° C. for 35 minutes. After the addition of 2.5% by volume of trypsin (PAA, Pasching, Austria), the preparation is incubated at 37° C. for a further 10 minutes. On completion of incubation, the enzyme solution is carefully pipeted off and 500 μL of complete medium are added to the DRGs in each case. The DRGs are in each case repeatedly suspended, drawn through No. 1, No. 12, and No. 16 needles by means of a syringe and transferred to 50 mL Falcon tubes and these are filled to 15 mL with complete medium. The contents of each Falcon tube are in each case filtered through a 70 μm Falcon filter insert and centrifuged at 1200 rpm and RT for 10 minutes. The resulting pellet is in each case taken up in 250 μL of complete medium and the cell count is determined.
The number of cells in the suspension is adjusted to 3×10^5 per mL and in each case 150 μL of this suspension are added to a well of the cell culture plates coated as described above. The plates are allowed to stand at 37° C., 5% by volume of CO2 and 95% relative humidity for two to three days in an incubator. […]

vanilloid receptor (VR1) = vanilloid receptor (VR1) (Homo sapiens (Human), UniProt Q8NER1); assay: FLIPR Ca2+ influx assay on CHO-K1 cells transfected with the human VR1 gene, capsaicin stimulus (Pharmacological Method II)
Sequence of vanilloid receptor (VR1) (Q8NER1 whole entry): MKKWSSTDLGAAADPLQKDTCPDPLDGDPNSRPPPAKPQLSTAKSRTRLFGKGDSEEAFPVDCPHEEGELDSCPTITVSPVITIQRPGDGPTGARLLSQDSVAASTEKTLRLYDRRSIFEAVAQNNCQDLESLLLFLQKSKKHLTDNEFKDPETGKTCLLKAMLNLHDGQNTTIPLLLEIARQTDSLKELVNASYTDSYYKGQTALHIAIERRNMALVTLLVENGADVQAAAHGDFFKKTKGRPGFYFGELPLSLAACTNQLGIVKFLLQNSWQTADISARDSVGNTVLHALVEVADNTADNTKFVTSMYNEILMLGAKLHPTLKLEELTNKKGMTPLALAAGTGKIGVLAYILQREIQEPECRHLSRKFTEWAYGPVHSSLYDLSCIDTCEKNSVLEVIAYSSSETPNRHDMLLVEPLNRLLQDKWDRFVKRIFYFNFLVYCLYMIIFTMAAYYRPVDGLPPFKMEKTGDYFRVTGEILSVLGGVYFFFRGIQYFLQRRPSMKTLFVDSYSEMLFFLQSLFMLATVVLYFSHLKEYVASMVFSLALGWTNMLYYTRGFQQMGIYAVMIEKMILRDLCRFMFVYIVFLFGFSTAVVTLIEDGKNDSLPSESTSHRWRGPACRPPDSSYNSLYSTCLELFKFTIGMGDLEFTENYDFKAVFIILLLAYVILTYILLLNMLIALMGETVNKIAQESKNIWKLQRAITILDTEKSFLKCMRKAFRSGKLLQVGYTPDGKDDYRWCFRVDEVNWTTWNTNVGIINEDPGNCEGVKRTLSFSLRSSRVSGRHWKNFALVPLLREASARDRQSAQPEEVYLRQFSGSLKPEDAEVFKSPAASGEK
Procedure: Furthermore, preference may be given to compounds of the invention of the general formulas I, Ia, Ib and Ic, which in the FLIPR assay using CHO—K1 cells, which have been transfected with the human VR1 gene in a concentration below 2000 nM, preferably below 1000 nM, more preferably below 300 nM, even more preferably below 100 nM, still more preferably below 75 nM, very preferably below 50 nM and most preferably below 10 nM, cause a 50 percent displacement of capsaicin present in a concentration of 100 nM. In the FLIPR assay, the Ca^2+ influx is quantified with the aid of a Ca^2+-sensitive dye (type Fluo-4, Molecular Probes Europe BV, Leiden, Netherlands) in a fluorescent imaging plate reader (FLIPR, Molecular Devices, Sunnyvale, USA), as described below.
II. Functional Investigations on the Vanilloid Receptor (VR1)
The agonistic or antagonistic action of the substances to be examined on the vanilloid receptor (VR1) can alternatively be determined by the following assay. According to this assay the Ca^2+ influx through the canal is quantified with the aid of a Ca^2+-sensitive dye (type Fluo-4, Molecular Probes, Europe BV, Leiden, Netherlands) in a fluorescent imaging plate reader (FLIPR, Molecular Devices, Sunnyvale, USA).
Chinese hamster ovary cells (CHO—K1 cells, European Collection of Cell Cultures (ECACC) UK) are stably transfected with the VR1 gene. For carrying out functional investigations, these cells are plated on poly-D-lysine-coated, black 96-well plates with a clear bottom (BD Biosciences, Heidelberg, Germany) in a density of 25,000 cells/well. The cells are incubated overnight at 37° C. and 5% CO2 in a culture medium (Nutrient Mixture ‘am’s F12, 10% by volume of FCS (fetal calf serum), 18 μg/mL of L-proline). On the following day the cells are incubated with Fluo-4 (Fluo-4 2 μM, Pluronic F127 0.01 by volume, Molecular Probes in HBSS (Hank's buffered saline solution), Gibco Invitrogen GmbH, Karlsruhe, Germany) for 30 minutes at 37° C. The plates are then washed 3 times with HBSS buffer and, after another incubation over a period of 15 minutes at RT, are used in the FLIPR for Ca^2+ measurement. The Ca^2+-dependent fluorescence is measured prior to and following the addition of the substances being examined (wavelength λex=488 nm, λem=540 nm). Quantification is carried out by measuring the highest fluorescence intensity (PC, fluorescence counts) over time.
The FLIPR protocol consists of two substance additions. First of all, the substances to be tested (10 μM) are pipeted onto the cells and the Ca^2+ influx is compared with the control (capsaicin 10 μM) (percentage activation based on the Ca^2+ signal following addition of 10 μM of capsaicin). Following incubation over a period of 5 minutes 100 nM of capsaicin are applied and the influx of Ca^2+ is likewise determined.
Desensitizing agonists and antagonists lead to a suppression of the Ca^2+ influx. The percentage inhibition compared with the maximum inhibition achieved with 10 μM of capsaicin is calculated.
Based on the percentage displacement effected by different concentrations of the compounds of the general formula Ito be tested, IC50 inhibition concentrations that cause 50 percent displacement of capsaicin are calculated. Conversion using the Cheng Prusoff equation gave Ki values for the test substances (Cheng, Prusoff; Bioch. Pharmacol. 22, 3099-3108, 1973).
The affinity of the compounds of the invention for the vanilloid receptor 1 (VR1/TRPV1-Receptor) was detected as described above (Pharmacological Methods I and II respectively).

Sequence of VR1/TRPV1 receptor (Q8NER1 whole entry): as above

| inhibition at 1 µM (VR1/TRPV1 receptor; @ 1 μM, read-out: inhibition (in percent) following pH-stimulus (Human)) [%] | inhibition at 5 µM (VR1/TRPV1 receptor; @ 5 μM, read-out: inhibition (in percent) following pH-stimulus (Human)) [%] | inhibition at 10 µM (VR1/TRPV1 receptor; @ 10 μM, read-out: inhibition (in percent) following pH-stimulus (Human)) [%] | Ki [1] [nM] | Ki (vanilloid receptor (VR1)) [nM] | IC50 (VR1/TRPV1 receptor; ne = no effect, no reaction observed) [nM] | SMILES |
| --- | --- | --- | --- | --- | --- | --- |
| 7 | 35 | 49 | 7.7 | 7.9 |  | CC1CCN(c2nc(C(F)(F)F)ccc2CNC(=O)C(C)c2cc(O)c([N+](=O)[O-])c(F)c2)CC1 (centres unmarked) [Example 27, 2-(3-Fluoro-5-hydroxy-4-nitrophenyl)-N-((2-(4-methylpiperidin-1-yl)-6-(trifluoromethyl)pyridin-3-yl)methyl)propanamide] |
|  |  |  | 16.7 | 4.4 | 253 | COc1cc(CC(=O)NCc2ccc(C(F)(F)F)nc2N2CCC(C)CC2)cc(Br)c1N [Example 3, 2-(4-Amino-3-bromo-5-methoxyphenyl)-N-(4-methyl-6′-trifluoromethyl-3,4,5,6-tetrahydro-2H-[1,2′]bipyridinyl-3′-ylmethyl)acetamide] |
